Literature values as cited in publication PMC7395068, “The evolution of strategies to minimise the risk of human drug-induced liver injury (DILI) in drug discovery and development” (Archives of Toxicology, 2020).
Like-named read-outs stand apart in the source and are kept apart here.

Key:
[1] = tested on: HepG2 C3A spheroid, BSEP, Glu/Gal in HepG2 cells, bioactivation; details: In vitro Assay; ref Williams 2019; cited from earlier work
[2] = cited from earlier work
hu-MPCC = details: cited from earlier work
[3] = cited from earlier work; remark: listed apart in the source
human hepatocytes = details: In vitro Assay; ref Xu 2008; cited from earlier work
[4] = tested on: THLE or HepG2 cells, isolated mitochondria, BSEP; details: In vitro Assay; ref Aleo 2019; cited from earlier work
RMPCC's = details: cited from earlier work
[5] = tested on: THLE-Null and THLE-3A4 cells; details: In vitro Assay; ref Gustafsson 2014; cited from earlier work
hLiMTs = details: In vitro Assay; ref Proctor 2017; cited from earlier work
PHH = details: In vitro Assay; ref Proctor 2017; cited from earlier work
[6] = ref Chen 2011; cited from earlier work
[7] = tested on: primary human hepatocytes, NIH3T3 fibroblasts, BSEP, CYP3A4; details: In vitro Assay; ref Schadt 2015; cited from earlier work
[8] = tested on: HepG2 cells, primary human hepatocytes; details: In vitro Assay; ref Garside 2014; cited from earlier work
PHH spheroids = details: In vitro Assay; ref Vorrink 2018; cited from earlier work
[9] = tested on: isolated mouse liver mitochondria; details: In vitro Assay; ref Porceddu 2012; cited from earlier work
rBsep = details: In vitro Assay; ref Dawson 2012; cited from earlier work
HepG2 cells [10] = details: cited from earlier work
HepG2 cells [11] = details: In vitro Assay; ref Persson 2013; cited from earlier work
[12] = In vitro Assay, ref Khetani 2012
[13] = In vitro Assay, ref O'Brien 2006

Row | Compound | DILI +VE (5-8), DILI -VE (-4) ([2]; ref Chen 2016) | DILI severity category ([2]; ref Chen 2016) | HMPCC's (hu-MPCC; [12]) | In vivo DILI ([3]; […]) | In vivo DILI ([3]; ref Aleo 2019) | In vivo DILI ([3]; ref Khetani 2012) | In vivo DILI ([3]; ref Xu 2008) | Structural based (HCI) (human hepatocytes) | Partition Hybrid HRM Score [4] | Ro2 Hybrid HRM Score [4] | RMPCC's (RMPCC's; [12]) | DILI Score (FDA) (1-8) [6] | hLiMTs ATP <20 x Cmax (PHH spheroids) | In vivo DILI ([3]; ref Porceddu 2012) | In vivo DILI ([3]; ref Vorrink 2018) | in vitro data EC2<=1x Cmax [9] | in vitro data EC20<=2uM [9] | also measured
1 | CCc1oc2ccccc2c1C(=O)c1cc(Br)c(O)c(Br)c1 [benzbromarone] | +VE | vMost-DILI-Concern | +VE | +VE | +VE | +VE | +VE | +VE | +VE | +VE | +VE |  |  |  |  |  |  | Bayesian Machine Learning [1]: +VE; In vivo DILI ([3]; ref Gustafsson 2014): +VE; In vivo DILI ([3]; ref Proctor 2017): +VE; In vivo DILI ([3]; ref Williams 2019): +VE; THLE-Null [5]: +VE; THLE-Null/3A4 [5]: +VE; hLiMTs ATP <100uM (hLiMTs): +VE (IC50 threshold of 100 µM); PHH ATP <100uM (PHH): +VE (IC50 threshold of 100 µM)
2 | CC(C(=O)O)c1ccc(-c2ccccc2)c(F)c1 (stereo not drawn) [flurbiprofen] | -VE | Ambiguous DILI-concern | +VE |  |  | +VE | +VE | +VE | +VE | +VE | +VE | 3 |  |  |  |  |  | In vivo DILI ([3]; ref Garside 2014): +VE; In vivo DILI ([3]; ref Gustafsson 2014): +VE; In vivo DILI ([3]; ref Schadt 2015): -VE; Cellular toxicity (3T3 cells) [7]: -VE; Combined Assay [7]: -VE; GSH adduct HML [7]: -VE; Hepatocyte cellular toxicity [7]: -VE; MitoTox 3T3 [7]: -VE; TDI CYP3A4 [7]: -VE; hBSEP inhibition [7]: -VE; Cluster 1-6 +VE Assay [8]: -VE; THLE-Null [5]: -VE; THLE-Null/3A4 [5]: -VE
3 | Cc1cccc(Nc2ccccc2C(=O)O)c1C [mefenamic acid] | +VE | vMost-DILI-Concern | +VE | +VE |  | +VE | +VE | +VE |  |  | +VE |  | +VE (IC20 < 20 × Cmax.tot cut-off) | +VE | +VE | +VE | +VE | In vivo DILI ([3]; ref Proctor 2017): -VE; hLiMTs ATP <100uM (hLiMTs): +VE (IC50 threshold of 100 µM); PHH ATP <100uM (PHH): +VE (IC50 threshold of 100 µM)
4 | Cn1cc[nH]c1=S [methimazole] |  |  | -VE |  |  |  |  |  | -VE | -VE | -VE |  |  |  |  |  |  | Inhibition of rBsep cutoff<1& cmax u>.2 (rBsep): -VE; Inhibition of rBsep cutoff<3 (rBsep): -VE
5 | CNCCC=C1c2ccccc2CCc2ccccc21 [nortriptyline] | +VE | vMost-DILI-Concern | +VE |  | +VE | +VE | +VE | -VE | +VE | +VE | +VE | 8 | +VE (IC20 < 20 × Cmax.tot cut-off) |  | +VE |  |  | 
6 | CN1C(C(=O)Nc2ccccn2)=C(O)c2ccccc2S1(=O)=O [piroxicam] | +VE | vLess-DILI-Concern | -VE | +VE | +VE | +VE | +VE | -VE | -VE | +VE | +VE | 3 | -VE | +VE | +VE | +VE | +VE | Structural based (HCI) (HepG2 cells [10]; [13]): +VE; Cluser analysis (HepG2 cells [11]): -VE; Structural based (HCI) (HepG2 cells [11]): -VE; In vivo DILI ([3]; ref O'Brien 2006): +VE; In vivo DILI ([3]; ref Persson 2013): +VE; In vivo DILI ([3]; ref Schadt 2015): -VE; Cellular toxicity (3T3 cells) [7]: -VE; Combined Assay [7]: -VE; GSH adduct HML [7]: -VE; Hepatocyte cellular toxicity [7]: -VE; MitoTox 3T3 [7]: -VE; TDI CYP3A4 [7]: -VE; hBSEP inhibition [7]: -VE
7 | CC(=O)[C@H]1CC[C@H]2[C@@H]3CCC4=CC(=O)CC[C@]4(C)[C@H]3CC[C@]12C [progesterone] | +VE | vLess-DILI-Concern | -VE | -VE |  | +VE | +VE | -VE |  |  | -VE |  | -VE |  | -VE |  |  | 
8 | NC(=O)c1cnccn1 [pyrazinamide] | +VE | vLess-DILI-Concern | +VE | +VE | +VE | +VE | +VE | -VE | +VE | -VE | -VE | 3 |  | +VE |  | +VE | +VE | Structural based (HCI) (HepG2 cells [10]; [13]): +VE; In vivo DILI ([3]; ref Garside 2014): +VE; In vivo DILI ([3]; ref O'Brien 2006): +VE; Cluster 1-6 +VE Assay [8]: -VE
9 | C=C[C@H]1C[N@@]2CC[C@H]1C[C@H]2[C@H](O)c1ccnc2ccc(OC)cc12 [quinine] |  |  |  |  |  |  |  |  |  |  |  |  | +VE (IC20 < 20 × Cmax.tot cut-off) |  |  |  |  | Structural based (HCI) (HepG2 cells [10]): +VE; DILI +VE (5-8), DILI -VE (-4) ([2]; in vivo): +VE; DILI severity category ([2]; in vivo): vLess-DILI-Concern; HMPCC's (hu-MPCC): +VE; In vivo DILI ([3]; in vivo): +VE; RMPCC's (RMPCC's): +VE
10 | O=c1n(CCCN2CCN(c3cccc(Cl)c3)CC2)nc2ccccn12 [trazodone] | +VE | vLess-DILI-Concern | +VE |  | +VE | +VE | +VE | +VE | +VE | +VE | +VE | 5 | +VE (IC20 < 20 × Cmax.tot cut-off) |  | +VE |  |  | 
